From ChEMBL document CHEMBL1201862, “PubChem BioAssay data set” (2004)
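Protocol summary: plate cells (96-well), add compound at 5 concentrations, incubate 48 h, interpolate endpoints linearly. The concentration for 50% growth inhibition is given as GI50.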 Activity calls are given as the source filed them. Rule as the data show it: active = GI50 up to about 1.1 µM and inactive = higher.

Assays:
Assay in all cases: NCI tumour cell line growth inhibition, 48 h
NCI/ADR-RES = test system: NCI/ADR-RES
TK-10 = test system: TK-10
OVCAR-5 = test system: OVCAR-5
SF-539 = test system: SF-539
SK-MEL-2 = test system: SK-MEL-2
SR = test system: SR
HT-29 = test system: HT-29
MDA-MB-435 = test system: MDA-MB-435
SK-OV-3 = test system: SK-OV-3
CAKI-1 = test system: CAKI-1
SNB-19 = test system: SNB-19
MCF7 = test system: MCF7
COLO 205 = test system: COLO 205
LOX IMVI = test system: LOX IMVI
T47D = test system: T47D
SF-268 = test system: SF-268
ACHN = test system: ACHN
UO-31 = test system: UO-31
SK-MEL-5 = test system: SK-MEL-5
SF-295 = test system: SF-295

Structure (SMILES)	GI50 (NCI/ADR-RES)	GI50 (TK-10)	GI50 (OVCAR-5)	GI50 (SF-539)	GI50 (SK-MEL-2)	GI50 (SR)	GI50 (HT-29)	GI50 (MDA-MB-435)	GI50 (SK-OV-3)	GI50 (CAKI-1)	GI50 (SNB-19)	GI50 (MCF7)	GI50 (COLO 205)	GI50 (LOX IMVI)	GI50 (T47D)	GI50 (SF-268)	GI50 (ACHN)	GI50 (UO-31)	GI50 (SK-MEL-5)	GI50 (SF-295)
O=[N+]([O-])C(C(Cl)=C(Cl)Cl)=C(n1nnc2ccccc21)n1nnc2ccccc21	32.4 µM (inactive)	46.1 µM (inactive)	47.1 µM (inactive)	28.2 µM (inactive)	42 µM (inactive)	8.45 µM (inactive)	26 µM (inactive)	27.9 µM (inactive)	> 43.6 µM (inactive)	30.3 µM (inactive)	> 86.7 µM (inactive)	28.1 µM (inactive)	19.5 µM (inactive)	24.4 µM (inactive)	40.7 µM (inactive)	30.1 µM (inactive)	25.6 µM (inactive)	25.6 µM (inactive)	34.2 µM (inactive)	> 56 µM (inactive)
Clc1nc(Cl)c(CBr)c(Cl)n1	4.29 µM (inactive)	4.7 µM (inactive)	3.22 µM (inactive)	2.99 µM (inactive)	8.65 µM (inactive)	1.74 µM (inactive)	4.29 µM (inactive)	5.05 µM (inactive)	15.2 µM (inactive)	10.9 µM (inactive)	16 µM (inactive)	5.37 µM (inactive)	7.01 µM (inactive)	1.83 µM (inactive)	13.5 µM (inactive)	8.02 µM (inactive)	4.84 µM (inactive)	3.33 µM (inactive)	4.01 µM (inactive)	6.11 µM (inactive)
COC(=O)C1(C)CC2C(C)(CCC3(C)C4=CC=C5C(=CC(=O)C(O)=C5C)C4(C)CCC23C)CC1O (stereo not given)	1.06 µM (active)	0.624 µM (active)	1.73 µM (inactive)	1.1 µM (active)	1.68 µM (inactive)	0.203 µM (active)	0.634 µM (active)	0.942 µM (active)	2.07 µM (inactive)	0.902 µM (active)	1.59 µM (inactive)	1.6 µM (inactive)	0.627 µM (active)	0.333 µM (active)	0.495 µM (active)	0.863 µM (active)	0.45 µM (active)	1.35 µM (inactive)	1.66 µM (inactive)	1.78 µM (inactive)
CC(=O)OCC1OC(n2c(-c3ccccc3)c(/N=N/c3ccccc3)c(C)c(C#N)c2=S)C(OC(C)=O)C(OC(C)=O)C1OC(C)=O (stereo not given)	> 100 µM (inactive)	> 100 µM (inactive)	> 100 µM (inactive)	> 100 µM (inactive)	> 100 µM (inactive)	> 100 µM (inactive)	> 100 µM (inactive)	> 100 µM (inactive)	> 100 µM (inactive)	> 100 µM (inactive)	> 100 µM (inactive)	> 100 µM (inactive)	> 100 µM (inactive)	> 100 µM (inactive)	> 100 µM (inactive)	> 100 µM (inactive)	> 100 µM (inactive)	> 100 µM (inactive)	> 100 µM (inactive)	> 100 µM (inactive)
COc1cc(C2c3cc4c(cc3OC(NCCO)C2C)OCO4)cc(OC)c1OC (stereo not given)	0.807 µM (active)	15.9 µM (inactive)	7.48 µM (inactive)	0.232 µM (active)	3.42 µM (inactive)	0.248 µM (active)	0.369 µM (active)	0.0927 µM (active)	0.553 µM (active)	0.485 µM (active)	1.32 µM (inactive)	0.344 µM (active)	0.526 µM (active)	0.42 µM (active)	> 74.3 µM (inactive)	2.05 µM (inactive)	0.755 µM (active)	1.52 µM (inactive)	0.323 µM (active)	0.274 µM (active)
O=C(O)C1[C@@H](C(=O)O)C1(Br)CBr (stereo not given in full)	> 100 µM (inactive)	> 100 µM (inactive)	> 100 µM (inactive)	> 100 µM (inactive)	> 100 µM (inactive)	> 100 µM (inactive)	> 100 µM (inactive)	> 100 µM (inactive)	> 100 µM (inactive)	> 100 µM (inactive)	> 100 µM (inactive)	> 100 µM (inactive)	> 100 µM (inactive)	> 100 µM (inactive)	> 100 µM (inactive)	> 100 µM (inactive)	> 100 µM (inactive)	> 100 µM (inactive)	> 100 µM (inactive)	> 100 µM (inactive)
COc1c(CC=C(C)C)c(O)c(C(CC(C)C)c2c(O)c(CC=C(C)C)c(O)c(C(C)=O)c2O)c(O)c1C(C)=O (stereo not given)	0.729 µM (active)	1.03 µM (active)	4.9 µM (inactive)	1.16 µM (inactive)	0.504 µM (active)	1.1 µM (active)	0.723 µM (active)	1.94 µM (inactive)	2.08 µM (inactive)	1.21 µM (inactive)	1.15 µM (inactive)	0.385 µM (active)	0.564 µM (active)	1.57 µM (inactive)	0.385 µM (active)	0.323 µM (active)	1.1 µM (active)	3.08 µM (inactive)	0.482 µM (active)	0.521 µM (active)
